Experimental data from publication PMC5432571 (Frontiers in Molecular Neuroscience, 2017).
Where two headings read alike, the source gives them in different places.

What was measured:
α3 GlyR = target: T1, α3 GlyR (Homo sapiens, UniProt O75311); assay: Whole-cell patch-clamp of glycine-induced currents, α3 GlyR expressed in CHO cells; assay type: cell-based; conditions: glycine 100 μM; for inhibition at 30 µM / inhibition at 300 µM: CHO, long application protocol, read-out: inhibition of α3 GlyR-mediated currents; for inhibition at 30 µM: NFA 30 μM; for inhibition at 300 µM: NFA 300 μM
T1 construct: expressed in transfected cells; host or cells: CHO cells
T1 sequence (O75311 34-464): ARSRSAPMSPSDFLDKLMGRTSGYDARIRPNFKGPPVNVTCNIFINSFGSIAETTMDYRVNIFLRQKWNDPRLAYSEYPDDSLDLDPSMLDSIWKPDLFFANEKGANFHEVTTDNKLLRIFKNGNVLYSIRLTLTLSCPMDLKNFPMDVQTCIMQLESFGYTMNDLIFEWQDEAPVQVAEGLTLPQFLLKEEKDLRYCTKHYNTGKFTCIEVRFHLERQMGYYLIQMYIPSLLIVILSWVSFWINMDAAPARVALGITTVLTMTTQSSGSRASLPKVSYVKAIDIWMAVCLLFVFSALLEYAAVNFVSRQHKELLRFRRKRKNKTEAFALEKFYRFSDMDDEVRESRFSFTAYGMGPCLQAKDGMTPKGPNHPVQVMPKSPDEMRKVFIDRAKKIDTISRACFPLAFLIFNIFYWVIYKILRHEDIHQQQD
Method: (§1) The experiments were carried out on cultured Chinese hamster ovary (CHO) cells obtained from the American Type Tissue Culture Collection (ATCC, Molsheim, France) that were maintained in culture conditions as previously described (Mukhtarov et al., [2013]; Maleeva et al., [2015]).
(§2) One day before transfection, cells were plated on the cover slips (12 mm in diameter) and placed inside 35-mm cell culture dishes with 2 ml of medium. Transfection was performed using the Lipofectamine 3000 protocol (Life Technology, USA). To facilitate identification of transfected cells a green fluorescent protein (GFP) was added to the transfection mixture. For expression of functional heteromeric receptors, cells were simultaneously transfected with cDNAs of α and β subunits in the ratio 1:10. Three hours after the initial exposure of cells to the cDNAs the culture medium was replaced with that containing strychnine (1 μM), which prevents spontaneous activation of GlyRs. Electrophysiological recordings were performed in the fluorescent cells 24–72 h after transfection.
(§3) Whole-cell and outside-out recordings were performed at room temperature (20–25°C) using an EPC-9 amplifier (HEKA Elektronik, Germany). Cells were continuously superfused with external solution containing (mM): NaCl 140, CaCl2 2, KCl 2.8, MgCl2 4, HEPES 20, glucose 10; pH 7.4; 320–330 mOsm. Intracellular solution used for filling recording patch pipettes contained (mM): CsCl 140, CaCl2 6, MgCl2 2, MgATP 2, NaGTP 0.4, HEPES/CsOH 10, BAPTA (tetrapotassium salt) 2; pH 7.3; 290 mOsm. Two different protocols of solutions application were used in this study. […] A “ramp protocol” implies the gradual change of Vhold alternately from −80 to +80 mV and from +80 to −80 mV during 1 s, Vhold was fixed at −80 or +80 mV at the beginning and at the end of the ramp for 500 ms (Figure 2B).
(§4) Recording pipettes were pulled from borosilicate glass capillaries (Harvard Apparatus Ltd, USA) and had resistances of 5–10 MOhm. For the rapid replacement of the solutions, the fast application system was used. Three parallel rectangular tubes (100 × 100 μm) were positioned 40–50 μm above the recorded cell. The movement of the tubes was controlled by a computer-driven fast exchange system (SF 77A Perfusion Fast-Step, Warner, USA) allowing a 10–90% solution exchange in 3–5 ms, as measured by open electrode controls (1/10 external solution/water). Cells with low input resistance (<150 MOhm) and a rapid run-down (>30% with repetitive application) were excluded from analysis.
(§5) Electrophysiological recordings were performed using PatchMaster (HEKA Electronic, Germany) software.
It is well documented that α3 GlyRs rapidly desensitize (Nikolic et al., [1998]) and this complicates accurate estimation of the NFA blocking potency.

α2β GlyR = target: T2, α2β GlyR (Homo sapiens, UniProt P23416+P48167); assay: Whole-cell patch-clamp of glycine-induced currents, heteromeric α2β GlyR expressed in CHO cells; assay type: cell-based; conditions: glycine 30 μM
T2 construct: expressed in transfected cells; host or cells: CHO cells
Method: as §1, §2, §3, §4, §5

[1] = tested on: ClC-K kidney Cl− channels; set-up: method as in Zifarelli et al., 2010; conditions: biphasic: activates at low concentrations; ref Zifarelli et al., 2010; cited from earlier work
[2] = +30 mV, representative, read-out: NFA IC50 (representative IC50 curve)
[3] = +80 mV, representative, read-out: NFA IC50 (representative IC50 curve)
[4] = −30 mV, representative, read-out: NFA IC50 (representative IC50 curve)
[5] = −80 mV, representative, read-out: NFA IC50 (representative IC50 curve)

T2 sequence (P23416 28-452 isoform P23416-2 limits assumed): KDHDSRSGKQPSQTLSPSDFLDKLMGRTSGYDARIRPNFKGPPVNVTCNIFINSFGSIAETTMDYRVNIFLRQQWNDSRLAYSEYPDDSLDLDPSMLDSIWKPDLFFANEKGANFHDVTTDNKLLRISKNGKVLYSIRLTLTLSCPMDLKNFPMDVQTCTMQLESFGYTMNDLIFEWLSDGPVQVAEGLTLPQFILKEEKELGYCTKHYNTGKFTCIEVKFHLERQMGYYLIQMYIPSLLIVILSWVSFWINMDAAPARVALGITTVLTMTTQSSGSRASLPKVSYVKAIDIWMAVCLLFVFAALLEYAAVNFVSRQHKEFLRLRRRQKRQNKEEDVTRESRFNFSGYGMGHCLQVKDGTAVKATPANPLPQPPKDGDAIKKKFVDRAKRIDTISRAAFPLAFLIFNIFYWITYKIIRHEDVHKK
T2 sequence (P48167 23-497): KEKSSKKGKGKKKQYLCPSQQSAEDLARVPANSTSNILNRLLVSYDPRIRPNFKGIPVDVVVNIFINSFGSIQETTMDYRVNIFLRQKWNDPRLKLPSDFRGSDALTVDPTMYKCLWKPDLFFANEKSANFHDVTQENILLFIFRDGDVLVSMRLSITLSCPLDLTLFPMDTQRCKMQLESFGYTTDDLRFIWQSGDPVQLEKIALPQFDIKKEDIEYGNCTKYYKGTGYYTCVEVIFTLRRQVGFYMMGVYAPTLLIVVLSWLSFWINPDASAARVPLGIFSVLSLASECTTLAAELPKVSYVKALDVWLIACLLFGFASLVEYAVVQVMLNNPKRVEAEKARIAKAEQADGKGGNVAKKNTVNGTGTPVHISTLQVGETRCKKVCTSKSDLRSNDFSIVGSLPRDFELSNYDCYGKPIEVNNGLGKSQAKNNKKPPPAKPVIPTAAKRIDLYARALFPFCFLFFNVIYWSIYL

## O=C(O)c1cccnc1Nc1cccc(C(F)(F)F)c1 [NFA, Niflumic acid]
α3 GlyR; [2]
  IC50: 23 µM
α3 GlyR; [3]
  IC50: 10 µM
α3 GlyR; +30 mV
  inhibition at 30 µM: 62 ± 5%
  inhibition at 300 µM: 90 ± 2%
α3 GlyR; −30 mV
  inhibition at 30 µM: 32 ± 4%
  inhibition at 300 µM: 86 ± 5%
α3 GlyR; MP +80 mV, mean ± SEM, read-out: IC50 of NFA
  IC50: 16 ± 6 µM
α3 GlyR; MP −80 mV, mean ± SEM, read-out: IC50 of NFA
  IC50: 86 ± 14 µM
α3 GlyR; [4]
  IC50: 78 µM
α3 GlyR; [5]
  IC50: 117 µM
α2β GlyR; [2]
  IC50: 24 µM
α2β GlyR; +80 mV, mean ± SEM, read-out: IC50 of NFA
  IC50: 20 ± 8 µM
α2β GlyR; [3]
  IC50: 22 µM
α2β GlyR; [4]
  IC50: 47 µM
α2β GlyR; −80 mV, mean ± SEM, read-out: IC50 of NFA
  IC50: 107 ± 37 µM
α2β GlyR; [5]
  IC50: 84 µM
[1]
  concentrations at which NFA blocks the channels: > 1 mM
